Experimental data as given in patent publication US20120214822A1 (ASTRAZENECA AB, priority 2007, published 2012).
Structures can show the parent of a compound that is named as a salt.

Biological target: human active recombinant p38α-6His tagged (Homo sapiens, UniProt Q16539)
Assay: P38 Alpha Enzyme Assay (AlphaScreen, biotinylated-ATF2 substrate);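 note: 0.5 nM final p38α, reaction started with ATP and run 45 min at 37 °C, phospho-ATF2 read by antibody-based AlphaScreen, background wells quenched with EDTA before ATP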
Format: biochemical
Conditions: p38 alpha enzyme inhibition; means of replicate determinations; 4 h pre-incubation at 37° C.; SD of assay 0.2-0.3 log units

Sequence of human active recombinant p38α-6His tagged (Q16539 whole entry): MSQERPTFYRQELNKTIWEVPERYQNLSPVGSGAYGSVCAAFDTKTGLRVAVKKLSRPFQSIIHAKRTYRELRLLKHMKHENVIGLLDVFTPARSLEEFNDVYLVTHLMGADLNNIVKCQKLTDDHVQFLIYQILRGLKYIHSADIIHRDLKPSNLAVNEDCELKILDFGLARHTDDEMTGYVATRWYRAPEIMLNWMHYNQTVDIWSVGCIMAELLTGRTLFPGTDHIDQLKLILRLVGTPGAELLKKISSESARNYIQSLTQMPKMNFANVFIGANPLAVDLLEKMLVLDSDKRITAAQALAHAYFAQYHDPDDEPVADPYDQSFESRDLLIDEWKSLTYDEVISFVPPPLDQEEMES

Row | SMILES | pIC50 | IC50 [nM]
1 | Cc1ccc(C(=O)NC2CC2)cc1-n1cc(CN(C)C)nc(NCc2ccccc2)c1=O [Example 105, N-Cyclopropyl-3-[5-[(dimethylamino)methyl]-2-oxo-3-[(phenylmethyl)amino]-1(2H)-pyrazinyl]-4-methyl-benzamide] | 6.2 | –
2 | Cc1ccc(C(=O)NC2CC2)cc1-n1ccnc(NC[C@@H](O)c2ccccc2)c1=O [Example 56, N-Cyclopropyl-3-[3-[[(2S)-2-hydroxy-2-phenylethyl]amino]-2-oxo-1(2H)-pyrazinyl]-4-methyl-benzamide] | 6.4 | –
3 | Cc1ccc(C(=O)NC2CC2)cc1-n1ccnc(N2CCCC2Cc2ccccc2F)c1=O (centres unmarked) [Example 75, N-Cyclopropyl-3-[3-[2-[(2-fluorophenyl)methyl]-1-pyrrolidinyl]-2-oxo-1(2H)-pyrazinyl]-4-methyl-benzamide] | 7.1 | –
4 | Cc1ccc(C(=O)N2CCCC2)cc1-n1cc(Br)nc(N2CCN(CCN3CCCC3)C(c3ccccc3)C2)c1=O (centres unmarked) [Example 122, 1-[3-[5-Bromo-2-oxo-3-[3-phenyl-4-[2-(1-pyrrolidinyl)ethyl]-1-piperazinyl]-1(2H)-pyrazinyl]-4-methylbenzoyl]-pyrrolidine] | 5.6 | –
5 | Cc1ccc(C(=O)NC2CC2)cc1-n1ccnc(NCc2cccc(F)c2)c1=O [Example 22, N-Cyclopropyl-3-[3-[[(3-fluorophenyl)methyl]amino]-2-oxo-1(2H)-pyrazinyl]-4-methyl-benzamide] | 7 | –
6 | Cc1ccc(C(=O)NC2CC2)cc1-n1ccnc(NCc2cccc(C(=O)NC3CC3)c2)c1=O [Example 69, N-Cyclopropyl-3-[3-[[[3-[(cyclopropylamino)carbonyl]phenyl]methyl]amino]-2-oxo-1(2H)-pyrazinyl]-4-methyl-benzamide] | 6.2 | –
7 | Cc1ccc(C(=O)NC2CC2)cc1-n1ccnc(NC2Cc3ccccc3C2)c1=O [Example 64, N-Cyclopropyl-3-[3-[(2,3-dihydro-1H-inden-2-yl)amino]-2-oxo-1(2H)-pyrazinyl]-4-methyl-benzamide] | 6.8 | –
8 | Cc1ccc(C(=O)NC2CC2)cc1-n1ccnc(N[C@@H](c2cccc3ccccc23)[C@@H](C)CN2CCOCC2)c1=O [Example 145, N-Cyclopropyl-4-methyl-3-[3-[[(1R,2S)-2-methyl-3-(4-morpholinyl)-1-(1-naphthalenyl)propyl]amino]-2-oxo-1(2H)-pyrazinyl]-benzamide] | 8.2 | –
9 | Cc1ccc(C(=O)NC2CC2)cc1-n1ccnc(NC(CCO)c2ccccc2)c1=O (centres unmarked) [Example 83, N-Cyclopropyl-3-[3-[(3-hydroxy-1-phenylpropyl)amino]-2-oxo-1(2H)-pyrazinyl]-4-methyl-benzamide] | 7.7 | –
10 | Cc1ccc(C(=O)NC2CC2)cc1-n1ccnc(NCc2ccccc2O)c1=O [Example 68, N-Cyclopropyl-3-[3-[[(2-hydroxyphenyl)methyl]amino]-2-oxo-1(2H)-pyrazinyl]-4-methyl-benzamide] | 7.6 | –
11 | Cc1ccc(C(=O)NC2CC2)cc1-n1ccnc(N2CCN(C)CC2c2ccccc2)c1=O (centres unmarked) [Example 119, N-Cyclopropyl-4-methyl-3-[3-(4-methyl-2-phenyl-1-piperazinyl)-2-oxo-1(2H)-pyrazinyl]-benzamide] | 6.6 | –
12 | CCNC(=O)c1ccc(C)c(-n2ccnc(NCc3ccccc3)c2=O)c1 [Example 115, N-Ethyl-4-methyl-3-[2-oxo-3-[(phenylmethyl)amino]-1(2H)-pyrazinyl]-benzamide] | 6.9 | –
13 | Cc1ccc(C(=O)NC2CC2)cc1-n1ccnc(NCc2cccc(CN3CCN(C)CC3)c2)c1=O [Example 40, N-Cyclopropyl-4-methyl-3-[3-[[[3-[(4-methyl-1-piperazinyl)methyl]phenyl]methyl]amino]-2-oxo-1(2H)-pyrazinyl]-benzamide] | 6.7 | –
14 | Cc1ccc(C(=O)NC2CC2)cc1-n1ccnc(N[C@@H](c2ccccc2)[C@@H](C)CN2CCC[C@@H](O)C2)c1=O [Example 186, N-Cyclopropyl-3-[3-[[(1R,2S)-3-[(3R)-3-hydroxy-1-piperidinyl]-2-methyl-1-phenylpropyl]amino]-2-oxo-1(2H)-pyrazinyl]-4-methyl-benzamide] | 9 | –
15 | Cc1ccc(C(=O)NC2CC2)cc1-n1ccnc(NCC2CNc3ccccc3C2)c1=O (centres unmarked) [Example 29, N-Cyclopropyl-4-methyl-3-[2-oxo-3-[[(1,2,3,4-tetrahydro-3-quinolinyl)methyl]amino]-1(2H)-pyrazinyl]-benzamide] | 7 | –
16 | CC[C@@H](Nc1nccn(-c2cc(C(=O)NOC)ccc2C)c1=O)c1ccccc1 [Example 113, N-Methoxy-4-methyl-3-[2-oxo-3-[[(1R)-1-phenylpropyl]amino]-1(2H)-pyrazinyl]-benzamide, trifluoroacetate] | 9.8 | –
17 | Cc1cccc(C2CCCCN2c2nccn(-c3cc(C(=O)NC4CC4)ccc3C)c2=O)c1 (centres unmarked) [Example 94, N-Cyclopropyl-4-methyl-3-[3-[2-(3-methylphenyl)-1-pipendinyl]-2-oxo-1(2H)-pyrazinyl]-benzamide] | 7.5 | –
18 | CNCCOc1ccccc1C1(Nc2nccn(-c3cc(C(=O)NC4CC4)ccc3C)c2=O)CC1 [Example 167, N-Cyclopropyl-4-methyl-3-[3-[[1-[2-[2-(methylamino)ethoxy]phenyl]cyclopropyl]amino]-2-oxo-1(2H)-pyrazinyl]-benzamide] | 9.7 | –

The remaining lines, values ahead:

Row | pIC50 | IC50 [nM] | SMILES
19 | 10.1 | – | Cc1c(F)cc(C(=O)NC2CC2)cc1-n1ccnc(NC(C)(C)c2ccccc2OCCN)c1=O [Example 311, 3-[3-({1-[2-(2-Aminoethoxy)phenyl]-1-methylethyl}amino)-2-oxopyrazin-1(2H)-yl]-N-cyclopropyl-5-fluoro-4-methylbenzamide]
20 | – | 1.26 | CNCCCOc1ccccc1[C@H]1CCCN1c1nccn(-c2cc(C(=O)NC3CC3)ccc2C)c1=O (single isomer, unassigned) [Example 325]
21 | 10.1 | – | Cc1ccc(C(=O)NC2CC2)cc1-n1ccnc(NC(C)(C)c2ccccc2OC[C@@H](CO)N(C)C)c1=O [Example 306, N-Cyclopropyl-3-[3-{[1-(2-{[(2R)-2-(dimethylamino)-3-hydroxypropyl]oxy}phenyl)-1-methylethyl]amino}-2-oxopyrazin-1(2H)-yl]-4-methylbenzamide]
22 | 9.6 | – | Cc1c(F)cc(C(=O)NC2CC2)cc1-n1ccnc(N[C@@H](c2ccccc2)[C@@H](C)CN2CCCCC2)c1=O [Example 329, N-Cyclopropyl-3-fluoro-4-methyl-5-[3-{[(1R,2S)-2-methyl-1-phenyl-3-piperidin-1-ylpropyl]amino}-2-oxopyrazin-1(2H)-yl]benzamide]
23 | 8.9 | – | CCc1ccc(C(=O)NC2CC2)cc1-n1ccnc(NC(C)(C)c2ccccc2OCCNC[C@H](C)O)c1=O [Example 289, N-Cyclopropyl-4-ethyl-3-[3-({1-[2-(2-{[(2S)-2-hydroxypropyl]amino}ethoxy)phenyl]-1-methylethyl}amino)-2-oxopyrazin-1(2H)-yl]benzamide]
24 | 8.2 | – | CNCCOc1ccccc1C(C)(C)Nc1nccn(-c2cc(C(=O)NCCF)ccc2C)c1=O [Example 225, N-(2-Fluoroethyl)-4-methyl-3-[3-[[1-methyl-1-[2-[2-(methylamino)ethoxy]phenyl]ethyl]amino]-2-oxo-1(2H)-pyrazinyl]-benzamide]
25 | 9.6 | – | Cc1ccc(C(=O)NC2CC2)cc1-n1ccnc(N[C@@H](c2ccccc2)[C@@H](C)CN2CCN(C3CCS(=O)(=O)C3)CC2)c1=O (stereo partly drawn) [Example 191, N-Cyclopropyl-4-methyl-3-[3-[[(1R,2S)-2-methyl-1-phenyl-3-[4-(tetrahydro-1,1-dioxido-3-thienyl)-1-piperazinyl]propyl]amino]-2-oxo-1(2H)-pyrazinyl]-benzamide]
26 | 9 | – | Cc1ccc(C(=O)NC2CC2)cc1-n1ccnc(N[C@@H](c2ccccc2)[C@@H](C)CN2CCCC2(C)C)c1=O [Example 197, N-Cyclopropyl-3-[3-[[(1R,2S)-3-(2,2-dimethyl-1-pyrrolidinyl)-2-methyl-1-phenylpropyl]amino]-2-oxo-1(2H)-pyrazinyl]-4-methyl-benzamide]
27 | 9.7 | – | Cc1ccc(C(=O)NC2CC2)cc1-n1ccnc(NC2(c3ccccc3OCCN3CCCC3)CC2)c1=O [Example 238, N-Cyclopropyl-4-methyl-3-[2-oxo-3-[[1-[2-[2-(1-pyrrolidinyl)ethoxy]phenyl]cyclopropyl]amino]-1(2H)-pyrazinyl]-benzamide]
28 | 10 | – | CNC[C@H](O)COc1ccccc1C(C)(C)Nc1nccn(-c2cc(C(=O)NC3CC3)cc(F)c2C)c1=O [Example 310, N-Cyclopropyl-3-fluoro-5-[3-{[1-(2-{[(2S)-2-hydroxy-3-(methylamino)propyl]oxy}phenyl)-1-methylethyl]amino}-2-oxopyrazin-1(2H)-yl]-4-methylbenzamide]
29 | 9.2 | – | Cc1ccc(C(=O)NC2CC2)cc1-n1ccnc(N[C@@H](c2ccccc2)[C@@H](C)CN2CCC3(CC2)CNC3)c1=O [Example 188, N-Cyclopropyl-3-[3-[[(1R,2S)-3-(2,7-diazaspiro[3.5]non-7-yl)-2-methyl-1-phenylpropyl]amino]-2-oxo-1(2H)-pyrazinyl]-4-methyl-benzamide]
30 | 9.7 | – | Cc1ccc(C(=O)NC2CC2)cc1-n1ccnc(NC2(c3ccccc3OCCNCCCO)CC2)c1=O [Example 250, N-Cyclopropyl-3-[3-[[1-[2-[2-[(3-hydroxypropyl)amino]ethoxy]phenyl]cyclopropyl]amino]-2-oxo-1(2H)-pyrazinyl]-4-methyl-benzamide]
31 | 10 | – | Cc1c(F)cc(C(=O)NC2CC2)cc1-n1ccnc(NC2(c3ccccc3OCCN(C)CCO)CC2)c1=O [Example 315, N-Cyclopropyl-3-fluoro-5-[3-{[1-(2-{2-[(2-hydroxyethyl)(methyl)amino]ethoxy}phenyl)cyclopropyl]amino}-2-oxopyrazin-1(2H)-yl]-4-methylbenzamide]
32 | 9.8 | – | Cc1ccc(C(=O)NC2CC2)cc1-n1ccnc(NC2(c3ccccc3OCCN3CCC[C@H]3C)CC2)c1=O [Example 247, N-Cyclopropyl-4-methyl-3-[3-[[1-[2-[2-[(2R)-2-methyl-1-pyrrolidinyl]ethoxy]phenyl]cyclopropyl]amino]-2-oxo-1(2H)-pyrazinyl]-benzamide]
